Reference: the supplement of paper PMC10883282
± gives the standard deviation of the averaged measurements.

Test system: SK-ES-1
Test: relative viability vs DMSO control (72 h) (fraction); higher = more viable cells
Method in brief: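 Densities for seeding sarcoma cell lines into 384-well plates were set to give 80–90% confluence. After 24 h, 2.5 µl of serially diluted compound from source plates of 10 mM to 0.0002 mM went in, and plates stayed 72 h at 37 °C in 5% CO2 with 0.1% DMSO vehicle and a 5 µM positive control. Percent growth from ATPLite readings, averaged over up to triplicate wells, served as relative viability, rescaled so 1 means full and 0 means none.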

Structure (SMILES)	relative viability (0.00017 µM)	relative viability (0.00051 µM)	relative viability (0.00152 µM)	relative viability (0.00457 µM)	relative viability (0.01372 µM)	relative viability (0.04115 µM)	relative viability (0.1235 µM)	relative viability (0.3704 µM)	relative viability (1.111 µM)	relative viability (3.333 µM)	relative viability (10 µM)	relative viability (2 pM)	relative viability (5 pM)	relative viability (15 pM)	relative viability (50 pM)	relative viability (0.00014 µM)	relative viability (0.00041 µM)	relative viability (0.0012 µM)	relative viability (0.0037 µM)	relative viability (0.011 µM)	relative viability (200 fM)	relative viability (600 fM)
N#CC[C@H](C1CCCC1)n1cc(-c2ncnc3[nH]ccc23)cn1 [Ruxolitinib]	0.926 ± 0.028	0.974 ± 0.027	0.96 ± 0.038	0.9617 ± 0.0031	0.942 ± 0.039	0.95 ± 0.049	0.933 ± 0.024	0.959 ± 0.044	0.932 ± 0.025	0.897 ± 0.05	0.812 ± 0.04	–	–	–	–	–	–	–	–	–	–	–
Cc1cc(C)c(/C=C2\C(=O)Nc3ccccc32)[nH]1 [Semaxanib]	0.972 ± 0.06	1.01 ± 0.056	0.954 ± 0.028	1 ± 0.056	0.967 ± 0.055	0.999 ± 0.018	1 ± 0.027	0.986 ± 0.09	0.925 ± 0.042	0.934 ± 0.052	0.765 ± 0.068	–	–	–	–	–	–	–	–	–	–	–
Cc1nc(-c2cn3c(n2)-c2ccc(-c4cnn(C(C)(C)C(N)=O)c4)cc2OCC3)n(C(C)C)n1 [Taselisib]	0.973 ± 0.069	0.984 ± 0.066	0.985 ± 0.013	0.994 ± 0.028	0.899 ± 0.074	0.761 ± 0.038	0.541 ± 0.045	0.41 ± 0.012	0.348 ± 0.017	0.288 ± 0.012	0.22127 ± 0.00015	–	–	–	–	–	–	–	–	–	–	–
CN1CCC(COc2cnc(-c3cccc(Cn4nc(-c5cccc(C#N)c5)ccc4=O)c3)nc2)CC1 [Tepotinib]	0.997 ± 0.018	1.08 ± 0.037	1.06 ± 0.026	1.06 ± 0.023	1.02 ± 0.018	1.06 ± 0.028	1.003 ± 0.0064	1 ± 0.037	0.974 ± 0.045	0.98 ± 0.038	0.718 ± 0.031	–	–	–	–	–	–	–	–	–	–	–
COc1cc2nccc(Oc3ccc(NC(=O)Nc4cc(C)on4)c(Cl)c3)c2cc1OC [Tivozanib]	1.02 ± 0.058	1.02 ± 0.019	1.03 ± 0.065	1.04 ± 0.028	1.11 ± 0.021	1.07 ± 0.021	1.08 ± 0.06	1.08 ± 0.023	1.06 ± 0.041	0.973 ± 0.035	0.518 ± 0.018	–	–	–	–	–	–	–	–	–	–	–
C[C@@H]1CCN(C(=O)CC#N)C[C@@H]1N(C)c1ncnc2[nH]ccc12 [Tofacitinib]	1 ± 0.032	1.05 ± 0.059	1.01 ± 0.023	1.03 ± 0.049	1.04 ± 0.046	1.01 ± 0.056	0.997 ± 0.056	1.01 ± 0.049	0.985 ± 0.081	1.03 ± 0.056	1.02 ± 0.06	–	–	–	–	–	–	–	–	–	–	–
COc1cc2c(cc1O)CCN[C@]21CS[C@@H]2c3c(OC(C)=O)c(C)c4c(c3[C@H](COC1=O)N1[C@@H]2[C@H]2c3c(cc(C)c(OC)c3O)C[C@@H]([C@@H]1O)N2C)OCO4 [Trabectedin]	–	–	–	–	–	–	–	–	–	–	–	0.945 ± 0.051	0.859 ± 0.046	0.643 ± 0.086	0.388 ± 0.069	0.169 ± 0.019	0.0592 ± 0.008	0.00217 ± 0.0018	3.33e-05 ± 0.00035	0.0054 ± 0.0013	1.02 ± 0.063	0.938 ± 0.031
CC(=O)Nc1cccc(-n2c(=O)n(C3CC3)c(=O)c3c(Nc4ccc(I)cc4F)n(C)c(=O)c(C)c32)c1 [Trametinib]	1.03 ± 0.035	1.04 ± 0.025	0.987 ± 0.031	0.99 ± 0.028	0.937 ± 0.077	0.984 ± 0.063	0.976 ± 0.031	0.969 ± 0.048	0.962 ± 0.05	0.948 ± 0.059	0.923 ± 0.017	–	–	–	–	–	–	–	–	–	–	–
Cc1cc(Nc2ncnc3ccc(NC4=NC(C)(C)CO4)cc23)ccc1Oc1ccn2ncnc2c1 [Tucatinib]	1.07 ± 0.025	1.04 ± 0.043	1.06 ± 0.039	1.1 ± 0.022	1.13 ± 0.064	1.06 ± 0.059	1.08 ± 0.079	1.06 ± 0.019	1.01 ± 0.011	0.98 ± 0.023	0.883 ± 0.017	–	–	–	–	–	–	–	–	–	–	–
COc1cc2/c(=N/c3ccc(Br)cc3F)nc[nH]c2cc1OCC1CCN(C)CC1 [Vandetanib]	1 ± 0.03	0.992 ± 0.024	1.02 ± 0.037	1.033 ± 0.0099	1.06 ± 0.035	0.989 ± 0.051	1.008 ± 0.0093	0.917 ± 0.033	0.762 ± 0.032	0.389 ± 0.0099	0.0169 ± 0.0022	–	–	–	–	–	–	–	–	–	–	–
CCCS(=O)(=O)Nc1ccc(F)c(C(=O)c2c[nH]c3ncc(-c4ccc(Cl)cc4)cc23)c1F [Vemurafenib]	1.02 ± 0.061	1.06 ± 0.043	1.08 ± 0.016	1.09 ± 0.022	1.06 ± 0.043	1.03 ± 0.045	1.05 ± 0.025	1.1 ± 0.011	1.04 ± 0.06	0.891 ± 0.078	0.534 ± 0.16	–	–	–	–	–	–	–	–	–	–	–
C[C@@H](c1ccc2nccn2c1)n1nnc2ncc(-c3cnn(C)c3)nc21 [Volitinib]	1.02 ± 0.025	1.01 ± 0.06	1.05 ± 0.031	1.07 ± 0.021	1.05 ± 0.047	1.04 ± 0.033	1.04 ± 0.051	1.03 ± 0.036	1.05 ± 0.1	1.05 ± 0.058	1.01 ± 0.083	–	–	–	–	–	–	–	–	–	–	–
C=CC(=O)N1CCC([C@@H]2CCNc3c(C(N)=O)c(-c4ccc(Oc5ccccc5)cc4)nn32)CC1 [Zanubrutinib]	0.906 ± 0.065	0.938 ± 0.088	0.994 ± 0.05	0.984 ± 0.083	0.949 ± 0.043	0.953 ± 0.029	0.934 ± 0.041	0.953 ± 0.057	0.894 ± 0.069	0.903 ± 0.031	0.845 ± 0.038	–	–	–	–	–	–	–	–	–	–	–
